Laboratory results taken from patent US7714134B2, “Compounds and use of tetrahydropyridothiophenes” (4SC AG, priority 2004, dated 2010).

Legend:
[1] = tested on: RKO (RKOp27) human colon adenocarcinoma cells; experiment: Alamar Blue cell viability assay, anti-proliferative/cytotoxic activity, RKO p27 uninduced; assay type: cell-based; conditions: RKOp27, 72 h, proliferating cells, absence of the inducer Ponasterone A, 72 hours incubation
Method: The anti-proliferative/cytotoxic activity of the compounds described herein, can be tested on subdlones of RKO (RKOp27) human colon adenocarcinoma cells (Schmidt et al., Oncogene 19, 2423-2429; 2000) using the Alamar Blue cell viability assay (described in O'Brien et al. Eur J Biochem 267, 5421-5426, 2000). The compounds are dissolved as 20 mM solutions in dimethylsulfoxide (DMSO) and subsequently diluted in semi-logarithmic steps. DMSO dilutions are further diluted 1:100 into Dulbecco's modified Eagle's medium (DMEM) containing 10% fetal calf serum to a final concentration twice as much as the final concentration in the test. RKO subclones are seeded into 96 well flat bottom plates at a density of 4000 cells per well in a volume of 50 µl per well. 24 hours after seeding the 50 μl each of the compound dilutions in DMEM medium are added into each well of the 96 Well plate. Each compound dilution is tested as quadruplicates. Wells containing untreated control cells are filled with 50 μl DMEM medium containing 1% DMSO. The cells are then incubated with the substances for 72 hours at 37° C. in a humidified atmosphere containing 5% carbon dioxide. To determine the viability of the cells, 10 μl of an Alamar Blue solution (Biosource) are added and the fluorescence is measured at an extinction of 544 nm and an emission of 590 nm. For the calculation of the cell viability the emission value from untreated cells is set as 100% viability and the emission rates of treated cells are set in relation to the values of untreated cells. Viabilities are expressed as % values.
The corresponding IC50 values of the compounds for anti-proliferative/cytotoxic activity are determined from the concentration-effect curves.
Representative IC50 values for anti-proliferation/cytotoxicity determined for the compounds mentioned and numbered as Examples in the examples above follow from the following table A (1st column), in which the numbers of the compound correspond to the numbers of the examples. Any or all of the compounds according to the present invention which are listed in the Table A, as well as their salts, are to be mentioned as a particular interesting subject of the present invention.

[2] = tested on: RKO colon adenocarcinoma cells (RKOp27) arrested by expression of ectopic p27Kip1; experiment: Alamar Blue cell viability assay, cell cycle specific mode of action, RKO p27 induced (arrested by Ponasterone A-induced p27Kip1); assay type: cell-based; conditions: Homo sapiens, RKOp27, 72 h, cells arrested by p27Kip1 induced with 10 μM Ponasterone A, 72 hours incubation
Method: To determine the cell cycle specific mode of action, subdlones of RKO colon adenocarcinoma cells (RKOp27 or RKOp21 as described by Schmidt et al. in Oncogene 19, 2423-2429; 2000) are seeded into 96 well flat bottom plates at a density of 16000 cells per well in a volume of 50 μl per well in DMEM growth medium with 10% FCS containing 10 μM Ponasterone A. 24 hours after seeding the 50 μl each of the compound dilutions in DMEM medium are added into each well of the 96 Well plate. Each compound dilution is tested as quadruplicates. Wells containing untreated control cells are filled with 50 μl DMEM medium containing 1% DMSO. The cells are then incubated with the substances for 72 hours at 37° C. in a humidified atmosphere containing 5% carbon dioxide. To determine the viability of the cells, 10 μl of an Alamar Blue solution (Biosource) are added and the fluorescence was measured at an extinction of 544 nm and an emission of 590 nm. For the calculation of the cell viability the emission value from untreated cells is set as 100% viability and the emission rates of treated cells are set in relation to the values of untreated cells. Viabilities are expressed as % values. Viability is compared of proliferating cells grown in the absence of the inducer Ponasterone A, versus viability of cells arrested by the expression of ectopic p27Kip1 induced by Ponasterone A. The data of this experimental setting are summarized in table A (2nd column).

Row | Structure (SMILES) | IC50 [2] | IC50 [1]
1 | N#Cc1c(NC(=O)c2ccccc2)sc2c1CCN(C(=O)Oc1ccccc1)C2 [Compound 59, 3-Cyano-2-[(1-phenyl-methanoyl)-amino]-4,7-dihydro-5H-thieno[2,3-c]pyridine-6-carboxylic acid phenyl ester] | > 60 µM | ≤ 3 µM
2 | N#Cc1c(NC(=O)c2ccccc2)sc2c1CCN(C(=O)OCCc1ccccn1)C2 [Compound 68, 3-Cyano-2-[(1-phenyl-methanoyl)-amino]-4,7-dihydro-5H-thieno[2,3-c]pyridine-6-carboxylic acid 2-pyridin-2-yl-ethyl ester] | > 60 µM | ≤ 3 µM
3 | COc1cccc(C(=O)Nc2sc3c(c2C#N)CCN(C(C)=O)C3)c1 [Compound 24, N-(6-Acetyl-3-cyano-4,5,6,7-tetrahydro-thieno[2,3-c]pyridin-2-yl)-3-methoxy-benzamide] | > 100 µM | ≤ 2 µM
4 | CCOC(=O)N1CCc2c(sc(NC(=O)c3cccc(O)c3)c2C#N)C1 [Compound 53, 3-Cyano-2-{[1-(3-hydroxy-phenyl)-methanoyl]-amino}-4,7-dihydro-5H-thieno[2,3-c]pyridine-6-carboxylic acid ethyl ester] | > 60 µM | ≤ 3 µM
5 | N#Cc1c(NC(=O)c2ccccc2)sc2c1CCN(C(=O)CCCc1cccs1)C2 [Compound 28, N-[3-Cyano6-(4-thiophen-2-yl-butanoyl)-4,5,6,7-tetrahydro-thieno[2,3-c]pryridin-2-yl]-benzamide] | > 100 µM | ≤ 2 µM
6 | CCOC(=O)N1CCc2c(sc(NC(=O)c3ccccc3[N+](=O)[O-])c2C#N)C1 [Compound 46, 3-Cyano-2-{[1-(2-nitro-phenyl)-methanoyl]-amino}-4,7-dihydro-5H-thieno[2,3-c]pyridine-6-carboxylic acid ethyl ester] | > 60 µM | ≤ 3 µM
7 | N#Cc1c(NC(=O)c2ccccc2)sc2c1CCN(C(=O)Cc1cccnc1)C2 [Compound 35, N-[3-Cyano-6-(2-pyridin-3-yl-ethanoyl)-4,5,6,7-tetrahydro-thieon[2,3-c]pyridin-2-yl]-benzamide] | > 60 µM | ≤ 3 µM
8 | N#Cc1c(NC(=O)c2ccccc2)sc2c1CCN(C(=O)OCc1ccccn1)C2 [Compound 62, 3-Cyano-2-[(1-phenyl-methanoyl)-amino]-4,7-dihydro-5H-thieno[2,3-c]pyridine-6-carboxylic acid pyridin-2-ylmethyl ester] | > 60 µM | ≤ 3 µM
9 | N#Cc1c(NC(=O)c2ccccc2)sc2c1CCN(C(=O)CCC(N)=O)C2 [Compound 8] | > 100 µM | ≤ 2 µM
10 | N#Cc1c(NC(=O)c2ccccc2)sc2c1CCN(C(=O)Cc1c[nH]c3ccccc13)C2 [Compound 36, N-[3-Cyano-6-(2-1H-indol-3-yl-ethanoyl)-4,5,6,7-tetrahydro-thieno[2,3-c]pyridin-2-yl]-benzamide] | > 60 µM | ≤ 3 µM
11 | N#Cc1c(NC(=O)c2ccccc2)sc2c1CCN(C(=O)OCCN1CCOCC1)C2 [Compound 67, 3-Cyano-2-[(1-phenyl-methanoyl)-amino]4,7-dihydro-5H-thieno[2,3-c]pyridine-6-carboxylic acid 2-morpholin-4-yl-ethyl ester] | > 60 µM | ≤ 3 µM
12 | CCOC(=O)N1CCc2c(sc(NC(=O)c3ccc(Cl)cc3)c2C#N)C1 [Compound 47, 2-{[1-(4-Chloro-phenyl)-methanoyl]-amino}-3-cyano-4,7-dihydro-5H-thieno[2,3-c]pyridin-6-carboxylic acid ethyl ester] | > 60 µM | ≤ 3 µM
13 | N#Cc1c(NC(=O)c2ccccc2)sc2c1CCN(C(=O)OCc1ccncc1)C2 [Compound 66, 3-Cyano-2-[(1-phenyl-methanoyl)-amino]-4,7-dihydro-5H-thieno[2,3-c]pyridine-6-carboxylic acid pyridin-4-ylmethyl ester] | > 60 µM | ≤ 3 µM
14 | CCOC(=O)N1CCc2c(sc(NC(=O)c3cccc(OC)c3)c2C#N)C1 [Compound 12, N-(6-Ethoxycarbonyl-3-cyano-4,5,6,7-tetrahydro-thieno[2,3-c]pyridin-2-yl)-3-methoxybenzamide] | > 100 µM | ≤ 2 µM
15 | CCCCCCOC(=O)N1CCc2c(sc(NC(=O)c3ccccc3)c2C#N)C1 [Compound 57, 3-Cyano-2-[(1-phenyl-methanoyl)-amino]-4,7-dihydro-5H-thieno[2,3-c]pyridine-6-carboxylic acid hexyl ester] | > 60 µM | ≤ 3 µM
16 | CC(=O)N1CCc2c(sc(NC(=O)c3ccccc3)c2C#N)C1 [Compound 20, N-(6-Acetyl-3-cyano-4,5,6,7-tetrahydro-thieno[2,3-c]pyridin-2-yl)-benzamide] | > 100 µM | 3 µM
17 | COc1cccc(C(=O)Nc2sc3c(c2C#N)CCN(C(=O)OC(C)(C)C)C3)c1 [Compound 3, N-(6-tert.-Butyloxycarbonyl-3-cyano-4,5,6,7-tetrahvdro-thieno[2,3-c]pyridin-2-yl)-3-methoxybenzamide] | > 100 µM | ≤ 2 µM

Further lines, with some results ahead:

Row | IC50 [2] | Structure (SMILES) | IC50 [1]
18 | > 100 µM | CC(=O)NCCOC(=O)N1CCc2c(sc(NC(=O)c3ccccc3)c2C#N)C1 [Compound 94, 3-Cyano-2-[(1-phenyl-methanoyl)-amino]4,7-dihydro-5H-thieno[2,3-c]pyridine-6-carboxylic acid 2-acetylamino-ethyl ester] | ≤ 3 µM
19 | > 60 µM | N#Cc1c(NC(=O)c2ccccc2)sc2c1CCN(C(=O)OCCc1ccncc1)C2 [Compound 73, 3-Cyano-2-[(1-phenyl-methanoyl)-amino]4,7-dihydro-5H-thieno[2,3-c]pyridine-6-carboxylic acid 2-pyridin4-yl-ethyl ester] | ≤ 3 µM
20 | > 100 µM | CCOCCCNC(=O)N1CCc2c(sc(NC(=O)c3ccccc3)c2C#N)C1 [Compound 100, 3-Cyano-2-[(1-phenyl-methanoyl)-amino]-4,7-dihydro-5H-hieno[2,3-c]pyridine-6-carboxylic acid (3-ethoxy-propyl)-amide] | ≤ 3 µM
21 | > 60 µM | N#Cc1c(NC(=O)c2ccccc2)sc2c1CCN(C(=O)NCCc1ccc([N+](=O)[O-])cc1)C2 [Compound 82, 3-Cyano-2-[(1-phenyl-methanoyl)amino]-4,7-dihydro-5H-thieno[2,3-c]pyridine-6-carboxylic acid [2-(4-nitro-phenyl)-ethyl]-amide] | ≤ 3 µM
22 | > 100 µM | N#Cc1c(NC(=O)c2ccccc2)sc2c1CCN(C(=O)SCCC(=O)O)C2 [Compound 103, 3-(1-{3-Cyano-2-[(1-phenyl-methanoyl)-amino]-4,7-dihydro-5H-thieno[2,3-c]pyridin-6-yl}-methanoylsulfanyl)-propionic acid] | ≤ 3 µM
23 | > 60 µM | N#Cc1c(NC(=O)c2ccccc2)sc2c1CCN(C(=O)NCCc1c[nH]c3ccccc13)C2 [Compound 81, 3-Cyano-2-[(1-phenyl-methanoyl)-amino]-4,7-dihydro-5H-thieno[2,3-c]pyridine-6-carboxylic acid [2-(1H-indol-3-yl)-ethyl]-amide] | ≤ 3 µM
24 | > 60 µM | N#Cc1c(NC(=O)c2ccccc2)sc2c1CCN(S(=O)(=O)c1ccc(N3CCOCC3)nc1)C2 [Compound 77, N-[3-Cyano-6-(6-morpholin-4-yl-pyridine-3-sulfonyl)-4,5,6,7-tetrahydro-thieno[2,3-c]pyridin-2-yl]-benzamide] | ≤ 3 µM
25 | > 100 µM | N#Cc1c(NC(=O)c2ccccc2)sc2c1CCN(C(=O)NCCc1ccccn1)C2 [Compound 99, 3-Cyano-2-[(1-phenyl-methanoyl)-amino]-4,7-dihydro-5H-thieno[2,3-c]pyridine-6-carboxylic acid (2-pyridin-2-yl-ethyl)-amide] | ≤ 3 µM
